# Test results published in PMC10073488 (Frontiers in Pharmacology, 2023).
# What was measured:
# [1] = human, in vivo
# Method: There were two studies in the project. Study 1 was under the fasting state, and study 2 was under the fed state. […] The studies aimed to compare the PK profiles and safeties of the T and R drugs. The study protocols were approved by the Wuxi People’s Hospital Ethics Committee (Approval No. 2018LLPJ-I-14-03) and were conducted at Wuxi People’s Hospital Affiliated to Nanjing Medical University, Jiangsu Province, China. The studies were performed in accordance with the principles of the World Medical Association (WMA) Declaration of Helsinki. All volunteers signed written informed consents before enrollment.
# Subjects received a single oral dose of the T or R drug in each period in a randomized way under either fasting or fed conditions, with a wash-out of 7 days. For the fed study, subjects finished the high-fat diet (containing protein 16.52%, fat 56.85%, carbohydrate 26.63%) in 30 min and were given the drug with 240 ml of a 20% glucose solution in water 30 min after they started eating the diet. For the fasting study, the drug was administered with 240 ml of a 20% glucose solution in water under the fasting state. An overnight fast for at least 10 h before administration was required. Subjects were not allowed to drink water 1 h before and after dosing, and lunch could be served only 4 h after dosing for both studies.
# Venous blood samples (4 ml) were collected from an intravenous indwelling catheter before dosing and at 0.5, 1, 1.5, 2, 2.5, 3, 3.5, 4, 4.5, 5, 6, 7, 8, 9, 10, 11, 12, 14, 24, 32, 48, and 72 h after dosing for both fed and fasting studies. Blood samples were drawn into BD Vacutainers® with ethylene diamine tetra acetic acid (EDTA) anticoagulant. Plasma was separated by centrifugation at 2150 ± 5 g for 10 min at 2°C–8°C and stored at −20°C within 2 h after sampling and transferred to −80°C within 24 h.
# Study data were summarized by descriptive statistics. The statistical analyses were performed using SAS® version 9.4. For the comparisons, Cmax, AUC0–t, and AUC0–∞ were analyzed using linear mixed models after logarithmic transformation. […] was achieved if the 90% CI of each parameter geometric means ratio (GMR) test/reference fell between 0.8–1.25. The statistical analysis included treatment, period, sequence, and subject-within-sequence as fixed effects. Tmax was compared between treatments using the non-parametric Wilcoxon signed-rank test.
# [2] = design: method as in Schnaars et al., 2023; details: metformin 1000 mg, IR; fed condition; ref Schnaars et al., 2023; cited from earlier work
# [3] = Published BE studies of sitagliptin (100 mg) and sitagliptin–metformin (50/1000 mg) IR fixed-dose combination; format: in vivo; details: sitagliptin (100 mg) alone; fasting condition; published values (ref Schnaars et al., 2023) compared with own data
# [4] = sitagliptin, ref FDA, 2005, 2006, 2012; cited from earlier work
SMILES,Intra-individual variation of AUC0-t [1] [%],Intra-individual variation of AUC0-∞ [1] [%],Intra-individual variation of Cmax [1] [%],Cmax [2] [ng/mL],median Tmax [2] [h],"Cmax, AUC0−t, AUC0−∞ higher than the data of this study [3]",t1/2 [4]
"CN(C)C(=N)N=C(N)N [Metformin, metformin]",13.01,13.31,11.61,1.59289,3.5,–,–
"N[C@@H](CC(=O)N1CCn2c(nnc2C(F)(F)F)C1)Cc1cc(F)c(F)cc1F [Sitagliptin, sitagliptin]",6.05,6.04,19.42,–,–,14–32%,around 12 h
